Values of other authors, collected in US20090117199A1, “Method of treatment of cancer” (priority 1998, published 2009).
Like-named read-outs stand apart in the source and are kept apart here.

Tests used:
[1] = test system: melanoma; conditions: cited from earlier work
[2] = test system: melanoma; conditions: single-agent chemotherapy; cited from earlier work
[3] = IL cisplatin or IL cisplatin with electroporation, lower end of reported results
[4] = IL cisplatin or IL cisplatin with electroporation, upper end of reported results

For `N.N.[Cl][Pt][Cl]` [cisplatin], the CR [1, 3] is given as 19%, the ORR [1, 3] is given as 38% and the PR [1, 3] is given as 19%. The CR [1, 4] was 47%, the ORR [1, 4] was 53% and the PR [1, 4] was 7%. For the same molecule, the ORR ([1]; lesions having a median diameter of 3.0 cm) was 44% and the ORR ([1]; lesions with a median diameter of 0.6 cm) was 53%.

For `CN(C)/N=N/c1[nH]cnc1C(N)=O` [dacarbazine], the “cases in which treatment is successful” value [2] is listed as 10-15%.

In the case of bleomycin, the efficacy ([1]; single electrochemotherapy treatment, IL, response reduced in larger tumors) is listed as “Substantial efficacy”.

B1: IFNγ: IL interferon (protein, UniProt P01579 24-161, looked up)
Interferon gamma: QDPYVKEAENLKKYFNAGHSDVADNGTLFLGILKNWKEESDRKIMQSQIVSFYFKLFKNFKDDQSIQKSVETIKEDMNVKFFNSNKKKRDDFEKLTNYSVTDLNVQRKAIHELIQVMAELSPAAKTGKRKRSQMLFRG
In the case of B1, the response ([1]; IL therapy, prior reports) is listed as “no result of transient response” and the “toxicity and side effects” value ([1]; in vivo) is listed as “significant toxicity and side effects”.
